Assay results published in paper PMC7898037, “Improving mitochondria and ER stability helps eliminate upper motor neuron degeneration that occurs due to mSOD1 toxicity and TDP‐43 pathology” (Clinical and Translational Medicine, 2021).

What was measured:
[1] = test system: misfolded SOD1 in UMNs of hSOD1^G93A‐UeGFP mice; experiment: Quantification of misfolded SOD1 (B8H10) in UMNs; format: in vivo; conditions: for misfolded SOD1 level in UMNs (average integrated density): hSOD1^G93A‐UeGFP mice
Experimental: (§1) hSOD1^G93A‐UeGFP, prpTDP‐43^A315T‐UeGFP and WT‐UeGFP mice were weighed and the required NU‐9 dose per weight was calculated (20 or 100 mg/kg), which was administered once daily by oral gavage, starting at postnatal day (P)60 and continuing until P120. Animals from the untreated group received the vehicle (NMP and olive oil) only. For oral administration purposes, 20 ga × 38 mm plastic feeding tubes were used (Instech Laboratories, Inc). The gavage tip was inserted into the mouth directly over the tongue and into the pharynx. While observing the swallowing reflex, the tip was safely and smoothly slid into the esophagus. Once the administration was completed, the gavage tip was pulled straight out.
The antibodies used are as follows: anti‐GFP (1:1000, Invitrogen; or 1:1000, Abcam) and anti‐misfolded SOD1 (B8H10, 1:250, Médimabs). Briefly, sections were treated with blocking solution (PBS, 0.05% BSA, 2% FBS, 1% Triton X‐100, and 0.1% saponin) for 30 min at room temperature and incubated with primary antibody diluted in blocking solution overnight at 4°C. Appropriate secondary fluorescent antibodies (1:500, AlexaFluor‐conjugated, Invitrogen) were added to the blocking solution at room temperature for 2 h in the dark.
50‐µm thick sections of primary motor cortex were captured using the 20× objective on an inverted epifluorescent Eclipse TE2000‐E microscope using the same settings and exposure time for all of the samples. eGFP positive (eGFP^+) UMNs in focal plane with sharp boundaries and a visible nucleus were traced using ImageJ (NIH). ROI were transferred to the misfolded SOD1 channel, and the integrated density was measured to determine the levels of misfolded SOD1 in GFP^+ UMNs only. Fifty to 90 UMNs were analyzed per mouse, and the average integrated density was reported per experimental group. For visualization purposes of misfolded SOD1 fluorescence intensity, nd2 files were opened in ImageJ and spectrum look‐up table (LUT) was applied to the appropriate channel.

[2] = test system: hSOD1^G93A‐UeGFP mice; experiment: Rotarod test, hSOD1^G93A‐UeGFP mice; format: in vivo; parameters: Rotarod, Mean Diff. (vehicle minus NU-9) / Rotarod, mean difference GS vehicle vs. GS NU-9 (20) / Rotarod, mean difference GS vehicle vs. GS NU-9 (100): unit not given here; conditions: for Rotarod, group mean (Mean 1 / Mean 2 of 2way ANOVA multiple comparisons) / Rotarod, mean difference GS vehicle vs. GS NU-9 (20) / Rotarod, mean difference GS vehicle vs. GS NU-9 (100): GS (hSOD1G93A-UeGFP); for Rotarod, mean difference GS vehicle vs. GS NU-9 (20): vehicle minus NU-9 (20); for Rotarod, mean difference GS vehicle vs. GS NU-9 (100): vehicle minus NU-9 (100); for Rotarod, group mean (Mean 1 / Mean 2) / Rotarod, Mean Diff. (vehicle minus NU-9): hSOD1G93A-UeGFP mice; for Rotarod, Average: hSOD1G93A-UeGFP
Experimental: as §1
Behavior data were collected from hSOD1^G93A‐UeGFP and WT‐UeGFP mice (starting at P60 and every 7 days until P116) and from prpTDP‐43^A315T‐UeGFP mice (at P60, P90, and P120) with the following number of mice for each group: WT‐UeGFP vehicle (n = 10), hSOD1^G93A‐UeGFP vehicle (n = 6), WT‐UeGFP 20 mg/kg/day NU‐9 (n = 5), hSOD1^G93A‐UeGFP 20 mg/kg/day NU‐9 (n = 7), WT‐UeGFP 100 mg/kg/day NU‐9 (n = 11), hSOD1^G93A‐UeGFP 100 mg/kg/day NU‐9 (n = 9), prpTDP‐43^A315T‐UeGFP untreated (n ≥ 3), and prpTDP‐43^A315T‐UeGFP 100 mg/kg/day NU‐9 (n = 4) (Table S3).
Mice were placed on a rotating rod that accelerates linearly from 4 to 40 rpm (Rotarod, Ugo Basile), and the average time spent on the rotating rod for three consecutive trials was calculated for each mouse. Mice were allowed to run for a maximum of 5 min with a 5 min rest period between each run, and the latency to fall was recorded for three consecutive trials. The average of the three trials was taken as the data point for each mouse at the age tested, and the performance of different groups are reported as the mean ± SEM.

With C[C@H](Oc1cc(C(F)(F)F)cc(C(F)(F)F)c1)C1CC(=O)CC(=O)C1 [NU‐9] the “Fig. 3E group mean (integrated density of misfolded SOD1 fluorescence in UMNs)” value ([1]; hSOD1G93A-UeGFP (NU-9 20 mg/kg/day)) was 132928, the “Fig. 3E group mean (integrated density of misfolded SOD1 fluorescence in UMNs)” value ([1]; hSOD1G93A-UeGFP (NU-9 100 mg/kg/day)) was 120052 and the “misfolded SOD1 level in UMNs (average integrated density)” value ([1]; 20 mg/kg/day oral gavage P60–P120) was 1.33 × 10^5 ± 0.11 × 10^5 au. The “misfolded SOD1 level in UMNs (average integrated density)” value ([1]; 100 mg/kg/day oral gavage P60–P120) was 1.2 × 10^5 ± 0.07 × 10^5 au, the “Rotarod, group mean (Mean 1 / Mean 2 of 2way ANOVA multiple comparisons)” value ([2]; NU-9 (20), P102) was 158.8 and the “Rotarod, group mean (Mean 1 / Mean 2 of 2way ANOVA multiple comparisons)” value ([2]; NU-9 (20), P109) was 149.1. The “Rotarod, group mean (Mean 1 / Mean 2 of 2way ANOVA multiple comparisons)” value ([2]; NU-9 (20), P116) was 107.7, the “Rotarod, group mean (Mean 1 / Mean 2 of 2way ANOVA multiple comparisons)” value ([2]; NU-9 (100), P102) was 170 and the “Rotarod, group mean (Mean 1 / Mean 2 of 2way ANOVA multiple comparisons)” value ([2]; NU-9 (100), P109) was 151.3. For the same compound, the “Rotarod, group mean (Mean 1 / Mean 2 of 2way ANOVA multiple comparisons)” value ([2]; NU-9 (100), P116) was 128.5, the “Rotarod, mean difference GS vehicle vs. GS NU-9 (20)” value ([2]; P102) was 22.8 and the “Rotarod, mean difference GS vehicle vs. GS NU-9 (20)” value ([2]; P109) was 18.74. The “Rotarod, mean difference GS vehicle vs. GS NU-9 (20)” value ([2]; P116) was 14.44, the “Rotarod, mean difference GS vehicle vs. GS NU-9 (100)” value ([2]; P102) was 11.61 and the “Rotarod, mean difference GS vehicle vs. GS NU-9 (100)” value ([2]; P109) was 16.57. The “Rotarod, mean difference GS vehicle vs. GS NU-9 (100)” value ([2]; P116) was -6.407, the “Rotarod, group mean (Mean 1 / Mean 2)” value ([2]; NU-9 20 mg/kg/day, P60) was 221.3 and the “Rotarod, group mean (Mean 1 / Mean 2)” value ([2]; NU-9 20 mg/kg/day, P67) was 221.6. The “Rotarod, group mean (Mean 1 / Mean 2)” value ([2]; NU-9 20 mg/kg/day, P74) was 213.6, the “Rotarod, group mean (Mean 1 / Mean 2)” value ([2]; NU-9 20 mg/kg/day, P81) was 207.4 and the “Rotarod, group mean (Mean 1 / Mean 2)” value ([2]; NU-9 20 mg/kg/day, P88) was 209.5. The “Rotarod, group mean (Mean 1 / Mean 2)” value ([2]; NU-9 20 mg/kg/day, P95) was 178.8, the “Rotarod, group mean (Mean 1 / Mean 2)” value ([2]; NU-9 100 mg/kg/day, P60) was 206.8 and the “Rotarod, group mean (Mean 1 / Mean 2)” value ([2]; NU-9 100 mg/kg/day, P67) was 223.1. The “Rotarod, group mean (Mean 1 / Mean 2)” value ([2]; NU-9 100 mg/kg/day, P74) was 224, the “Rotarod, group mean (Mean 1 / Mean 2)” value ([2]; NU-9 100 mg/kg/day, P81) was 223.4 and the “Rotarod, group mean (Mean 1 / Mean 2)” value ([2]; NU-9 100 mg/kg/day, P88) was 203.8. The “Rotarod, group mean (Mean 1 / Mean 2)” value ([2]; NU-9 100 mg/kg/day, P95) was 191, the “Rotarod, Mean Diff. (vehicle minus NU-9)” value ([2]; vehicle vs. NU-9 20 mg/kg/day, P60) was -28.22 and the “Rotarod, Mean Diff. (vehicle minus NU-9)” value ([2]; vehicle vs. NU-9 20 mg/kg/day, P67) was 4.159. For the same compound, the “Rotarod, Mean Diff. (vehicle minus NU-9)” value ([2]; vehicle vs. NU-9 20 mg/kg/day, P74) was 4.103, the “Rotarod, Mean Diff. (vehicle minus NU-9)” value ([2]; vehicle vs. NU-9 20 mg/kg/day, P81) was -5.651 and the “Rotarod, Mean Diff. (vehicle minus NU-9)” value ([2]; vehicle vs. NU-9 20 mg/kg/day, P88) was -17.41. The “Rotarod, Mean Diff. (vehicle minus NU-9)” value ([2]; vehicle vs. NU-9 20 mg/kg/day, P95) was 23.52, the “Rotarod, Mean Diff. (vehicle minus NU-9)” value ([2]; vehicle vs. NU-9 20 mg/kg/day, P102) was 22.8 and the “Rotarod, Mean Diff. (vehicle minus NU-9)” value ([2]; vehicle vs. NU-9 20 mg/kg/day, P109) was 18.74. For the same compound, the “Rotarod, Mean Diff. (vehicle minus NU-9)” value ([2]; vehicle vs. NU-9 20 mg/kg/day, P116) was 14.44, the “Rotarod, Mean Diff. (vehicle minus NU-9)” value ([2]; vehicle vs. NU-9 100 mg/kg/day, P60) was -13.7 and the “Rotarod, Mean Diff. (vehicle minus NU-9)” value ([2]; vehicle vs. NU-9 100 mg/kg/day, P67) was 2.704. The “Rotarod, Mean Diff. (vehicle minus NU-9)” value ([2]; vehicle vs. NU-9 100 mg/kg/day, P74) was -6.241, the “Rotarod, Mean Diff. (vehicle minus NU-9)” value ([2]; vehicle vs. NU-9 100 mg/kg/day, P81) was -21.67 and the “Rotarod, Mean Diff. (vehicle minus NU-9)” value ([2]; vehicle vs. NU-9 100 mg/kg/day, P88) was -11.7. For the same compound, the “Rotarod, Mean Diff. (vehicle minus NU-9)” value ([2]; vehicle vs. NU-9 100 mg/kg/day, P95) was 11.37, the “Rotarod, Mean Diff. (vehicle minus NU-9)” value ([2]; vehicle vs. NU-9 100 mg/kg/day, P102) was 11.61 and the “Rotarod, Mean Diff. (vehicle minus NU-9)” value ([2]; vehicle vs. NU-9 100 mg/kg/day, P109) was 16.57. The “Rotarod, Mean Diff. (vehicle minus NU-9)” value ([2]; vehicle vs. NU-9 100 mg/kg/day, P116) was -6.407, the “Rotarod, Average” value ([2]; NU-9 20 mg/kg/day po, P60) was 221.333 s and the “Rotarod, Average” value ([2]; NU-9 20 mg/kg/day po, P67) was 221.619 s. The “Rotarod, Average” value ([2]; NU-9 20 mg/kg/day po, P74) was 213.619 s, the “Rotarod, Average” value ([2]; NU-9 20 mg/kg/day po, P81) was 207.429 s and the “Rotarod, Average” value ([2]; NU-9 20 mg/kg/day po, P88) was 209.524 s. The “Rotarod, Average” value ([2]; NU-9 20 mg/kg/day po, P95) was 178.81 s, the “Rotarod, Average” value ([2]; NU-9 20 mg/kg/day po, P102) was 158.81 s and the “Rotarod, Average” value ([2]; NU-9 20 mg/kg/day po, P109) was 149.095 s. For the same compound, the “Rotarod, Average” value ([2]; NU-9 20 mg/kg/day po, P116) was 107.667 s, the “Rotarod, Average” value ([2]; NU-9 100 mg/kg/day po, P60) was 206.815 s and the “Rotarod, Average” value ([2]; NU-9 100 mg/kg/day po, P67) was 223.074 s. For the same compound, the “Rotarod, Average” value ([2]; NU-9 100 mg/kg/day po, P74) was 223.963 s, the “Rotarod, Average” value ([2]; NU-9 100 mg/kg/day po, P81) was 223.444 s and the “Rotarod, Average” value ([2]; NU-9 100 mg/kg/day po, P88) was 203.815 s. The “Rotarod, Average” value ([2]; NU-9 100 mg/kg/day po, P95) was 190.963 s, the “Rotarod, Average” value ([2]; NU-9 100 mg/kg/day po, P102) was 170 s and the “Rotarod, Average” value ([2]; NU-9 100 mg/kg/day po, P109) was 151.259 s. For the same compound, the “Rotarod, Average” value ([2]; NU-9 100 mg/kg/day po, P116) was 128.519 s and the rotarod performance ([2]; hSOD1^G93A‐UeGFP mice, regardless of dose (20 or 100 mg/kg/day)) was “did not result in significant improvement”.
